According to patent US7345068B2, “Aromatic amino acid derivatives and medicinal compositions” (priority 2002, dated 2008):

Assays:
sarcoma 180 cells = assay: Sarcoma 180 subcutaneous implant in mice, tumor weight; type: in vivo, ICR mice; conditions: 100 mg/kg intravenously for 7 days; tumor weight 10 days after implantation
Experimental: In an inguinal region of ICR mice, 1×10^6 sarcoma 180 cells were implanted subcutaneously. After 24 hours from the implantation, administration of the test compounds (Example 6-3) and Example 49-3)) was started, which was continued intravenously for 7 days. Each of the test compounds was dissolved in a physiologic saline containing 10% DMSO and 10% Tween 80 so that the amount of the test compound became 100 mg/kg, which was intravenously administered in an amount of 0.1 ml per 10 g of body weight. After 10 days from the implantation, tumor weight was measured and a proliferation inhibiting rate was calculated by the following formula to be compared with that of nontreated controls. Proliferation inhibiting rate (T/C)=[1−(average tumor weight of the group added with the test compound/average tumor weight of the control group)]×100

human LAT1 (hLAT1) [1] = target: T1, human LAT1 (hLAT1) (Homo sapiens, UniProt Q01650); assay: Inhibition of leucine uptake into hLAT1 expressing Xenopus oocytes; type: cell-based; conditions: 10 μM 14C-Leu, 30 minutes uptake, oocytes with hLAT1 and h4F2hc cRNA
T1 construct: expressed in transfected cells; host or cells: Xenopus laevis oocytes injected with cRNA
T1 sequence (Q01650 whole entry): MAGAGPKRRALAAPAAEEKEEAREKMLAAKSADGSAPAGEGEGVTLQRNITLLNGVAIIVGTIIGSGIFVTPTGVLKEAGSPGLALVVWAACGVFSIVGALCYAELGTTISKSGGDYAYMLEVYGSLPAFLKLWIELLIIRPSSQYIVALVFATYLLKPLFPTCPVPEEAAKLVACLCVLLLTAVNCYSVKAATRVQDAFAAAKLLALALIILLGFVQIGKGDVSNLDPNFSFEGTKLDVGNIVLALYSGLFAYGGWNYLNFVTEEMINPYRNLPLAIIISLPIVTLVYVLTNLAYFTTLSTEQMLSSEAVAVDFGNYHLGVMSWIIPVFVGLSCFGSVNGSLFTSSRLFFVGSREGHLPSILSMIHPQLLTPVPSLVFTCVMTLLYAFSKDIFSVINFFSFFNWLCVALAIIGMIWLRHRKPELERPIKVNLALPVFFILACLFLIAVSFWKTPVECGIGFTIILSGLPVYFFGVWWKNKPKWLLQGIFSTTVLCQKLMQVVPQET
Experimental: (§1) 1) First, human LAT1 (hereinafter referred to as hLAT1), human LAT2 (hereinafter referred to as hLAT2) and human 4F2hc (hereinafter referred to as h4F2hc) were linearized by restriction enzyme treatment. After ethanol precipitation, they were dissolved in a DEPC treatment solution to prepare a mold cDNA. Then, in vitro transcription reaction was carried out in the following manner.
(§2) Reaction composition (50 μl in total) • Mold cDNA 1.5 μg • RNasin RNase inhibitor (Promega) 100 U • rNTP (Amersham. Pharmacia) 10 mM each (rGTP was 1 mM) • DTT 30 mM • m7G(5′)ppp(5′)G (Amersham. Pharmacia) […] • RNA polymerase (Stratagene) 50 U • Transcription buffer
(§3) As the RNA polymerase for hLAT1, hLAT2 and h4F2hc, T3, SP6 and T7 were used, respectively.
(§4) After the above reagents were mixed, they were reacted at 37° C. for 10 minutes, added with 1 μL of 5 mM rGTP, and reacted again at 37° C. for 10 minutes. Further, 1 μL of 5 mM rGTP was added and the reaction was carried out again at 37° C. for 10 minutes. Then, RNase-free DNase (Stratagene) was added and mixed, followed by incubation at 37° C. for 20 minutes. The reaction solution was sequentially extracted with phenol/chloroform, and then with chloroform. Then, half amount of 7.5 M NH4OAc and 2.5-fold amount of cold ethanol were added to perform ethanol precipitation. After centrifugation at 15000 rpm for 30 minutes, the resulting precipitate was washed with cold 80% ethanol and dissolved in 100 μL of a DEPC treatment solution. Thereafter, ethanol precipitation was performed again. The precipitate obtained by centrifugation at 15000 rpm for 30 minutes was washed with cold 80% ethanol and dried for 20 minutes in a centrifugal concentrator. Then, it was dissolved in a DEPC treatment solution to 0.5 mg/mL to prepare a cRNA solution. Thus, cRNA was prepared by in vitro transcription reaction.
(§5) 2) Xenopus laevis was anesthetized by immersing into an anesthetic solution (0.2% MS-222, 0.3% KHCO3), and then cut open in the abdominal region on ice to take out an oocyte mass under the peritoneum. The extracted oocyte mass was shredded with tweezers, which was added to an OR2 culture medium (5 mM HEPES, 82.5 mM NaCl, 2 mM KCl, 1 mM MgCl2, pH 7.5) containing 2 mg/mL of collagenase, incubated at room temperature for about 30 minutes, washed with the OR2 culture medium and transferred into a Barth culture medium (10 mM HEPES, 88 mM NaCl, 1 mM KCl, 0.33 mM Ca(NO3)2, 0.41 mM CaCl2, 0.82 mM MgSO4, 2.4 mM NaHCO3, pH 7.4).
(§6) Then, a follicular cell layer covering the oocytes was peeled under a stereoscopic microscope to isolate the oocytes, to which 50 nL of a cRNA solution was added, respectively. As the cRNA, an equimolar mixture of hLAT1 cRNA and h4F2hc cRNA was injected into the oocytes for hLAT1 expression, and an equimolar mixture of hLAT2 cRNA and h4F2hc cRNA was injected into the oocytes for hLAT2 expression.
(§7) The control cell was injected with distilled water.
(§8) 3) The oocytes after the injection were cultured in a Barth culture medium containing gentamicin for 2 days, from which healthy oocytes were selected and transferred to a 24-well plate at 8-10 cell/well.
(§9) First, after washing twice with choline 100 (5 mM HEPES, 100 mM choline Cl, 2 mM KCl, 1.8 mM CaCl2, 1 mM MgCl2, pH 7.4) at room temperature, choline 100 containing 10 μM ^14C-Leu and specimens of various concentrations was added for an uptake for 30 minutes. Then, after washing with choline 100 of 4° C. six times, the oocytes were transferred to vials one by one and 250 μL of 10% SDS was added thereto, which was shaken at room temperature for an hour to be dissolved. After an hour, the solution was added with 3 mL of a scintillator to measure the radioactivity using a liquid scintillation counter. Inhibition rate was calculated by the following formula using an average value of 8 to 10 cells. Inhibition rate (%)=100−(radioactivity of the well added with the test compound)/(radioactivity of the well not added with the test compound)×100 […]

human LAT1 (hLAT1) [2] = assay: as above; type: cell-based; conditions: IC50 hLAT2 expressing cells / IC50 hLAT1 expressing cells
Experimental: as §1, §2, §3, §4, §5, §6, §7, §8, §9

human LAT2 (hLAT2) = target: T2, human LAT2 (hLAT2) (Homo sapiens, UniProt Q9UHI5); assay: Inhibition of leucine uptake into hLAT2 expressing Xenopus oocytes; type: cell-based; conditions: 10 μM 14C-Leu, 30 minutes uptake, oocytes with hLAT2 and h4F2hc cRNA
T2 construct: expressed in transfected cells; host or cells: Xenopus laevis oocytes injected with cRNA
T2 sequence (Q9UHI5 1-535): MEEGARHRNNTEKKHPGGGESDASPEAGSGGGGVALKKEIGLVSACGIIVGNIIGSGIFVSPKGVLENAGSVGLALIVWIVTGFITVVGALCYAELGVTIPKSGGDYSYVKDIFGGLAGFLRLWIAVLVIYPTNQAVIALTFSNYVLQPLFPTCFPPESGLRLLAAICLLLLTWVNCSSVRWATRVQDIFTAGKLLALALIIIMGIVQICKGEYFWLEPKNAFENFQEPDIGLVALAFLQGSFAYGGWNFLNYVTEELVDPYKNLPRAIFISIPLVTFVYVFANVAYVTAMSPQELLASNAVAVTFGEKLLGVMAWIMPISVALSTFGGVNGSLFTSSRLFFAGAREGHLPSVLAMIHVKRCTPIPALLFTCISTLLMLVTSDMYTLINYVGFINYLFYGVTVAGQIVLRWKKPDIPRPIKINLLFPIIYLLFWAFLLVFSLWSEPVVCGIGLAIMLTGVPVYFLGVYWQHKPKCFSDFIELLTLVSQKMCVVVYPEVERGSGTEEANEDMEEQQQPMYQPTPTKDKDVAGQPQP
Experimental: as §1, §2, §3, §4, §5, §6, §7, §8, §9

LAT1 = target: T3, LAT1 (Homo sapiens, UniProt Q01650); assay: LAT1 inhibiting activity: inhibition of 14C-L-leucine uptake in T24 cells; type: cell-based; conditions: 1 μM 14C-Leu, 1-minute uptake
T3 construct: Using human bladder cancer cell strain T24 cells, in which LAT1 only was strongly expressed; endogenous in cells; host or cells: T24 human bladder cancer cells
T3 sequence (Q01650 whole entry): as the sequence (Q01650 whole entry) above
T3 sequence (P08195 102-630 partner): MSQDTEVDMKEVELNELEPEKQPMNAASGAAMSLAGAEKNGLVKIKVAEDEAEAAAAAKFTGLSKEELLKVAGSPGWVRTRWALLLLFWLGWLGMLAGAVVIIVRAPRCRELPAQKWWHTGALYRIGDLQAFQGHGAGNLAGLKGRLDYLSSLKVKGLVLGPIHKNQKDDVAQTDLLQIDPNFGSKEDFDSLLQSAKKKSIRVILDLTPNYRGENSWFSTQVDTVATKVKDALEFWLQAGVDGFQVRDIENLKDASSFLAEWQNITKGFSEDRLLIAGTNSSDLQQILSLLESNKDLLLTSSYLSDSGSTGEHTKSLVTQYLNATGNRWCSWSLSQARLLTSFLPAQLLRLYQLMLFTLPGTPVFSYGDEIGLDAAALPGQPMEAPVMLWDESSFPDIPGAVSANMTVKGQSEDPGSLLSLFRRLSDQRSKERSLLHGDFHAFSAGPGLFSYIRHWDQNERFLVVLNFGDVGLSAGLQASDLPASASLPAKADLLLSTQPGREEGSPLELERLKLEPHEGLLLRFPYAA
Experimental: 1) To each of the weighed test compounds, DMSO was added to prepare a 100 mM solution or suspension as a DMSO stock. In an assay, the stock was diluted 1,000 fold with a buffer described below. The final concentration of the test compound was 100 μM and the final concentration of DMSO was 0.1%.
2) The LAT1 inhibiting activity of the test compound was determined in the following manner. Using human bladder cancer cell strain T24 cells, in which LAT1 only was strongly expressed, inhibiting activity of each test compound against “^14C”-L-leucine uptake was determined as the LAT1 inhibiting activity.
T24 cells in a logarithmic growth-phase were transferred to a 24-well plate at 0.8×10^5 cell/well and cultured at 37° C. for 2 days. After the plate was incubated at 37° C. on a water bath for 5 minutes, the fixed cells were washed three times with a Hank's balanced salt solution (HBSS: 25 mM HEPES, 125 mM choline chloride, 5.6 mM glucose, 4.8 mM KCl, 1.2 mM MgSO4, 1.2 mM KH2PO4, 1.3 mM CaCl2, pH 7.4) warmed to 37° C., not containing Na^+, to which 500 μl of HBSS (37° C.) was added. Then, further incubation was carried out for 7 minutes.
After the incubation was finished, a supernatant was replaced with HBSS containing 1 μM ^14C-Leu and 100 μM test compound (37° C.), followed by 1-minute uptake. Then, the cells were washed three times with HBSS of 4° C. The washed cells were added with 500 μl of 0.1 N NaOH to dissolve the cells for 20 minutes. The cell solution was transferred to a vial, to which 3 ml of a scintillator was added to measure the radioactivity with a liquid scintillation counter.
Inhibition % was calculated by the following formula. Inhibition %=100−(radioactivity of the well added with the test compound)/(radioactivity of the well not added with the test compound)×100

[3] = Acute toxicity test, intravenous administration of mice (LD50); conditions: mouse, in vivo
Experimental: Further, with respect to the compounds of Examples 77-79 and Example 98, an acute toxicity test for intravenous administration of mice were carried out to obtain LD50.

Row | SMILES | proliferation inhibiting rate (sarcoma 180 cells) [%] | melting point | IC50 (human LAT1 (hLAT1) [1]) [nM] | Selectivity (L2/L1) (human LAT1 (hLAT1) [2]) [times] | IC50 (human LAT2 (hLAT2)) [nM] | IC50 (LAT1) [nM] | LD50 [3] [mg/kg]
1 | COC(=O)[C@@H](N)Cc1cccc(Oc2ccc3ccccc3c2)c1.Cl [Example 49-3), 3-(2-naphthyloxy)-L-phenylalanine methyl ester hydrochloride] | 41.3 | 209 to 211 °C (dec.) | – | – | – | – | –
2 | N[C@@H](Cc1cc(Cl)c(OCCc2coc(-c3ccc4ccccc4c3)n2)c(Cl)c1)C(=O)O [Example 17] | – | 232 to 233 °C (dec.) | < 1000 | ≥ 100 | > 100000 | – | –
3 | COC(=O)[C@@H](N)Cc1cc(Cl)c(OCc2cccc3nc(-c4ccccc4)oc23)c(Cl)c1.Cl [Example 6-3), 3,5-Dichloro-O-[(2-phenyl)-benzoxazol-7-yl]methyl-L-tyrosine methyl ester hydrochloride] | 52.2 | 225 to 225.5 °C (dec.) | – | – | – | – | –
4 | NC1(C(=O)O)CC2CCC1C2 (centres unmarked) [BCH, 2-aminobicyclo-(2,2,1)-heptane-2-carboxylic acid, reference compound] | – | – | – | – | – | 100000 | ≥ 300
5 | N[C@@H](Cc1cccc(OCCc2ccc3ccccc3c2)c1)C(=O)O [Example 59, 3-[2-(2-naphthyl)ethoxy]-L-phenylalanine] | – | 210 to 214 °C (dec.) | – | ≤ 0.1 | < 1000 | – | –
6 | N[C@@H](Cc1cc(Cl)c(OCCc2csc(-c3ccccc3)n2)c(Cl)c1)C(=O)O [Example 15] | – | 205 to 210 °C (dec.) | < 1000 | ≥ 100 | > 100000 | – | –
7 | N[C@@H](Cc1cccc(OCCc2ccc3c(c2)CCCC3)c1)C(=O)O [Example 60, 3-[2-[2-(5,6,7,8-tetrahydro-naphthyl)]ethoxy]-L-phenylalanine] | – | 198 to 202 °C (dec.) | – | ≤ 0.1 | < 1000 | – | –
8 | N[C@@H](Cc1cc(Cl)c(OCc2cccc3nc(-c4ccccc4)oc23)c(Cl)c1)C(=O)O [Example 6-2), 3,5-dichloro-O-[(2-phenyl)-benzoxazol-7-yl]methyl-L-tyrosine] | – | 233 to 238 °C (dec.) | 100 | 1000 | – | 300 | –
9 | N[C@@H](Cc1cccc(Oc2ccc(Oc3ccc(O)cc3)cc2)c1)C(=O)O [Example 57, 3-[4-(4-hydroxyphenoxy)phenoxy]-L-phenylalanine] | – | 234 to 237 °C (dec.) | – | 0.02 | 200 | – | –
10 | N[C@@H](Cc1cc(Cl)c(OCCc2coc(-c3ccccc3)n2)c(Cl)c1)C(=O)O [Example 9] | – | 198 to 205 °C | 700 | 100 | 69000 | – | –
11 | Cc1ccc(-c2nc3cccc(COc4c(Cl)cc(C[C@H](N)C(=O)O)cc4Cl)c3o2)cc1 [Example 36] | – | 221 to 231 °C (dec.) | – | – | – | 200 | –
12 | N[C@@H](Cc1cc(Cl)c(OCCc2cccc3nc(-c4ccccc4)oc23)c(Cl)c1)C(=O)O [Example 23] | – | 205 to 215 °C (dec.) | < 1000 | ≥ 100 | > 100000 | – | –
13 | N[C@@H](Cc1cccc(Oc2ccc(-c3ccccc3)cc2)c1)C(=O)O [Example 93] | – | 214 to 217 °C (dec.) | – | – | – | 170 | –
14 | COc1ccc(-c2nc3cc(C)cc(COc4c(Cl)cc(C[C@H](N)C(=O)O)cc4Cl)c3o2)cc1 [Example 35] | – | 210 to 213 °C (dec.) | – | – | – | 280 | –
